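Tested at 5 concentrations; 48 h exposure; 96-well plates; endpoints linearly interpolated, else capped at highest concentration. TGI is the concentration that stops growth completely.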
Experiments:
Test in all cases: inhibition of tumour cell growth, NCI panel, 48 h
CAKI-1 renal = tested on: CAKI-1 renal
K-562 leukemia = tested on: K-562 leukemia
OVCAR-8 ovarian = tested on: OVCAR-8 ovarian
MALME-3M melanoma = tested on: MALME-3M melanoma
SNB-19 CNS = tested on: SNB-19 CNS
SF-268 CNS = tested on: SF-268 CNS
SN12C renal = tested on: SN12C renal
MCF7 breast = tested on: MCF7 breast
MOLT-4 leukemia = tested on: MOLT-4 leukemia
M14 melanoma = tested on: M14 melanoma

Row | Compound | TGI (CAKI-1 renal) [µM] | TGI (K-562 leukemia) [µM] | TGI (OVCAR-8 ovarian) [µM] | TGI (MALME-3M melanoma) [µM] | TGI (SNB-19 CNS) [µM] | TGI (SF-268 CNS) [µM] | TGI (SN12C renal) [µM] | TGI (MCF7 breast) [µM] | TGI (MOLT-4 leukemia) [µM] | TGI (M14 melanoma) [µM]
1 | O=C1CS(=O)C23c4cc5ccccc5n4CCC2CCCN13 (stereo not given) | > 100 | > 100 | > 100 | > 100 | > 100 | > 100 | > 100 | > 100 | > 100 | > 100
2 | COC(=O)c1cc2c(cc1CC(Cc1ccc3c(c1)CCC3)C(=O)OC)CCC2 (stereo not given) | > 100 | > 100 | > 100 | > 100 | > 100 | > 100 | > 100 | 92.7 | > 100 | > 100
3 | OCC(O)C(O)C(O)/C=N/Nc1nc(O)c(/C=C2\C=Nc3ccccc32)[nH]1 (stereo not given) | > 100 | > 100 | > 100 | > 100 | > 100 | > 100 | > 100 | > 100 | > 100 | > 100
4 | Cc1c(C#N)c(N)n(C2OCC(O)C(O)C2O)c(=S)c1C#N (stereo not given) | > 100 | > 100 | > 100 | > 100 | > 100 | > 100 | > 100 | > 100 | > 100 | > 100
5 | CC/C(Cl)=N\OC(=O)Nc1ccc(F)c([N+](=O)[O-])c1 | 7.7 | > 24.5 | 32.8 | 4.35 | 33.7 | 36.4 | 47.1 | > 37.8 | > 36.3 | > 53.6
6 | CN1COCc2cc3cc4c(cc3nc21)OCCO4 | > 100 | > 100 | > 100 | > 100 | > 100 | > 100 | > 100 | > 100 | > 100 | > 100
7 | CC1=CC(=O)CC2(C)CCC(C(C)CC(=O)CC(C)C)CC12 (stereo not given) | 30.2 | > 100 | 53.2 | 62.4 | > 100 | > 100 | 32.6 | 66.8 | 40.6 | 32.1
8 | CC(C)(C)c1ccc(OCC(=O)O)c(Cl)c1 | > 100 | > 100 | > 100 | > 100 | > 100 | > 100 | > 100 | > 100 | > 100 | > 100
9 | S=C1CC(c2ccccc2)Sc2ccc(Cl)cc2N1 (stereo not given) | > 100 | > 100 | > 100 | > 100 | > 100 | > 100 | > 100 | > 100 | > 100 | > 100
10 | C[C@]1(S(=O)(=O)c2ccccc2)C[C@H]2N(Cc3ccccc3)[C@@H]1CCC21OCCO1 | > 100 | > 100 | > 100 | > 100 | > 100 | > 100 | > 100 | > 100 | > 100 | > 100
